From PMC5551175, “Trypanosoma brucei Inhibition by Essential Oils from Medicinal and Aromatic Plants Traditionally Used in Cameroon (Azadirachta indica, Aframomum melegueta, Aframomum daniellii, Clausena anisata, Dichrostachys cinerea and Echinops giganteus)” (International Journal of Environmental Research and Public …, 2017)
Read-outs that look alike come from different tables or passages of the source.

Tests used:
[1] = system: T. brucei TC221 bloodstream forms; assay: T. brucei growth inhibition assay (resazurin); format: cell-based; conditions: Trypanosoma brucei, 72 h, 48 h + 24 h with resazurine
Method: (§1) The cell culture conditions and the growth inhibition assay on T. brucei and Balb/3T3 cells were performed as described before. T. brucei TC221 bloodstream forms and mouse embryonic fibroblast Balb/3T3 cells (ATCC no CCL-163) were cultivated in vented plastic flasks at 37 °C with 5% CO2. For T. brucei, the growth medium was HMI-9 [45] supplemented with 10% (v/v) fetal bovine serum (Gibco, Waltham, MA, USA), whereas the Balb/3T3 cells were grown in Dulbecco’s Modified Eagle’s Medium (Sigma-Aldrich) supplemented with 10% (v/v) heat-inactivated fetal bovine serum, glutamine (0.584 g/L), and 10 mL/L 100× penicillin-streptomycin (Gibco). The essential oils or pure compounds identified from these oils were dissolved in dimethyl sulfoxide (DMSO) and serially diluted with growth medium in white 96-well microtiter plates. 20,000 bloodstream forms of T. brucei or Balb/3T3 cells were added to each well in a final volume of 200 μL. In the case of mammalian cells, we also tested 2000 cells/well with similar results. […] Cell viability was verified by a drug-free control for each compound. The plates were incubated for 48 h in the CO2 incubator; then 20 μL of 0.5 mM resazurine (Sigma Aldrich) was added to each well, and the plates were incubated for an additional 24 h before the fluorescence was measured with an Infinite M200 microplate reader (Tecan group, Ltd., Männedorf, Switzerland) equipped with 540 and 590 nm excitation and emission filters. The half maximal inhibitory concentration (IC50) values were calculated on a log inhibitor versus the response curves by non-linear regression using the GraphPad prism 5.04 software (GraphPad Software, Inc., La Jolla, CA, USA).

Balb/3T3 cells = assay: Mammalian cell growth inhibition assay (resazurin); format: cell-based, mouse; conditions: for CC50: BALB/3T3, 72 h, mouse embryonic fibroblast cells, 48 h + 24 h with resazurine, read-out: IC50 Balb/3T3; for Selectivity Index (SI): Balb/3T3 versus T. b. brucei TC221
Method: as §1

[2] = read-out: IC50 T. b. brucei (TC221)
[3] = µM value in parentheses, read-out: IC50 T. b. brucei (TC221), value in brackets (converted)

Compound | IC50 [1, 2] | IC50 [1, 3] | CC50 (Balb/3T3 cells) | Selectivity Index (SI) (Balb/3T3 cells)
CC12CCC(CC1)C(C)(C)O2 [1,8-Cineole] | > 100 µg/mL |  |  | 
C=C1CCC2CC1C2(C)C (stereo not drawn) [β-Pinene] | 11.4 ± 2.6 µg/mL | 83.7 µM | > 100 µg/mL | >8.77
C=C1CCC2(C(C)C)CC12 (stereo not shown) [Sabinene] | 5.96 ± 1.3 µg/mL | 43.8 µM | > 100 µg/mL | >16.7

Now from value to molecule, other results behind:

IC50 [1, 2] | IC50 [1, 3] | Compound | CC50 (Balb/3T3 cells) | Selectivity Index (SI) (Balb/3T3 cells)
0.0286 ± 0.0008 µg/mL | 0.022 µM | Cc1ccc(C(=O)Nc2ccc(S(=O)(=O)O)c3cc(S(=O)(=O)O)cc(S(=O)(=O)O)c23)cc1NC(=O)c1cccc(NC(=O)Nc2cccc(C(=O)Nc3cc(C(=O)Nc4ccc(S(=O)(=O)O)c5cc(S(=O)(=O)O)cc(S(=O)(=O)O)c45)ccc3C)c2)c1 [Suramin, reference compound] |  | 
8.25 ± 1.3 µg/mL | 40.4 µM | C=C1CC/C=C(\C)CC[C@@H]2[C@@H]1CC2(C)C [(E)-Caryophyllene] | > 100 µg/mL | >12.1
> 100 µg/mL |  | CC1=CCC(O)(C(C)C)CC1 (stereo not shown) [Terpinen-4-ol] |  | 
